30 compounds from ChEMBL document CHEMBL6182863, “Discovery of novel rigid STING PROTAC degraders as potential therapeutics for acute kidney injury” (Eur J Med Chem, 2025) can be followed below.

In brackets after ≈: the same amount, converted by molar mass. Activity calls are given as the source filed them. No cut-off for these calls is given here.

In series [1] the target is Protein cereblon/Stimulator of interferon genes protein (Homo sapiens, UniProt Q96SW2+Q86WV6). Put plainly: PROTAC activity at CRBN/STING in human THP-1 cells assessed as induction of STING degradation at 5 uM measured after 24 hrs by Western blotting analysis relative to control. The format is cell-based. A general note: In western blotting, separated proteins are transferred to a membrane and probed.

The nature of series [2]: Water solubility of the compound at 2 mg by HPLC analysis. The format is physicochemical.
Series [3] is described as follows: Metabolic stability in human liver microsomes assessed as half life. The format is ADME, Microsome. (Liver microsomes are a subcellular fraction often used to study metabolism.)
Series [4] can be described thus: Metabolic stability in human liver microsomes assessed as metabolic factor relative to control. The format is ADME, Microsome.
A short description of series [5]: Metabolic stability in human liver microsomes assessed as intrinsic clearance per gram of protein. The class given is ADME, Microsome.
Series [6] deals with von Hippel-Lindau disease tumor suppressor/Stimulator of interferon genes protein (Homo sapiens, UniProt P40337+Q86WV6). Put plainly: PROTAC activity at VHL/STING (unknown origin). The format is protein assay.
von Hippel-Lindau disease tumor suppressor/Stimulator of interferon genes protein, sequence (P40337 whole entry): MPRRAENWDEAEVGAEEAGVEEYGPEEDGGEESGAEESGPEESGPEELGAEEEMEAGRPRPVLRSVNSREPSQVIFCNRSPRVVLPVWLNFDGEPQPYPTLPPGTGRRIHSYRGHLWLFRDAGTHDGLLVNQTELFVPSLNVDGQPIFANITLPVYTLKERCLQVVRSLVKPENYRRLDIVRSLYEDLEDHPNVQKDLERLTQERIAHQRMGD
von Hippel-Lindau disease tumor suppressor/Stimulator of interferon genes protein, sequence (Q86WV6 whole entry): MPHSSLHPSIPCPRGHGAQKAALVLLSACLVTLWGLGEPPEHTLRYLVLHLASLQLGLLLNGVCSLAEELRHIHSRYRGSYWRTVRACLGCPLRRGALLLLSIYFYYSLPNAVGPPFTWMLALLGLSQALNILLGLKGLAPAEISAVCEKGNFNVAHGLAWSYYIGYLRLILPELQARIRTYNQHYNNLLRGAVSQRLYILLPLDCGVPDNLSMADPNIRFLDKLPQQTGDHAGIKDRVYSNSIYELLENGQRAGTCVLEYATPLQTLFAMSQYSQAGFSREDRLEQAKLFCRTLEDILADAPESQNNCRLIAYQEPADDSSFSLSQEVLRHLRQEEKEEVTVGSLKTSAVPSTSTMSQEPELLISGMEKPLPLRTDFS

Protein cereblon/Stimulator of interferon genes protein, sequence (Q86WV6 whole entry, looked up): as the sequence (Q86WV6 whole entry) above
Protein cereblon/Stimulator of interferon genes protein, sequence (Q96SW2 whole entry, looked up): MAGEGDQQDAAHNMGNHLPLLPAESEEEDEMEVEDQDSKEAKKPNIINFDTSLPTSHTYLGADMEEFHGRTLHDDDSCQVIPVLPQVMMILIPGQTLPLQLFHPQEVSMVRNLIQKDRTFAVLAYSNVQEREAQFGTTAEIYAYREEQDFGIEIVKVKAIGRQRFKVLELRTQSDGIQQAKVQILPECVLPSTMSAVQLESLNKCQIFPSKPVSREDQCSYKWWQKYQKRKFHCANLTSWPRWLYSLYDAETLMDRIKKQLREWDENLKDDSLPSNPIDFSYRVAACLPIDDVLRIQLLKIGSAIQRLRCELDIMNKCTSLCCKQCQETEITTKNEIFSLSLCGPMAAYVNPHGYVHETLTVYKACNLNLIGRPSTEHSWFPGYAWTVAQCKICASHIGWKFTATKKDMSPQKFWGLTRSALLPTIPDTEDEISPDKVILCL

On to `O=C1CCC(N2C(=O)c3cccc(N4CCC(CN5CCN(C(=O)COCC(=O)Nc6ccc(NC(=O)c7ccc([N+](=O)[O-])o7)cc6)CC5)C4)c3C2=O)C(=O)N1` (stereo not drawn), for which the outcome in series [1] was inactive.

On to `O=C(/C=C/C(=O)N1CC(CN2CCN(c3ccc4c(c3)C(=O)N(C3CCC(=O)NC3=O)C4=O)CC2)C1)Nc1ccc(NC(=O)c2ccc([N+](=O)[O-])o2)cc1` (stereo not drawn), for which the result in series [1] was inactive.

For the compound `O=C(/C=C/C(=O)N1CCN(CC2CCCN2c2ccc3c(c2)C(=O)N(C2CCC(=O)NC2=O)C3=O)CC1)Nc1ccc(NC(=O)c2ccc([N+](=O)[O-])o2)cc1` (stereo not drawn), the Activity in series [1] was found to be 72.3%.

As for `O=C(/C=C/C(=O)N1CCC(N2CCN(c3cccc4c3C(=O)N(C3CCC(=O)NC3=O)C4=O)CC2)CC1)Nc1ccc(NC(=O)c2ccc([N+](=O)[O-])o2)cc1` (stereo not drawn), the result in series [1] was inactive.

In the case of `O=C(/C=C/C(=O)N1CCN(CC2CCCN2c2cccc3c2C(=O)N(C2CCC(=O)NC2=O)C3=O)CC1)Nc1ccc(NC(=O)c2ccc([N+](=O)[O-])o2)cc1` (stereo not drawn), the Activity in series [1] came to 77.7%. For the same compound, the solubility in series [2] stood at 2.872 µg/mL (≈ 3.82 µM).

Regarding `O=C(/C=C/C(=O)N1CC(N2CCN(c3cccc4c3C(=O)N(C3CCC(=O)NC3=O)C4=O)CC2)C1)Nc1ccc(NC(=O)c2ccc([N+](=O)[O-])o2)cc1` (stereo not drawn), the Activity in series [1] turned out to be 30.3%.

As to `O=C1CCC(N2C(=O)c3cccc(N4CCC(N5CCN(C(=O)COCC(=O)Nc6ccc(NC(=O)c7ccc([N+](=O)[O-])o7)cc6)CC5)C4)c3C2=O)C(=O)N1` (stereo not drawn), the outcome in series [1] was inactive.

As for `O=C(/C=C/C(=O)Nc1ccc(NC(=O)c2ccc([N+](=O)[O-])o2)cc1)NCCCCCCNc1cccc2c1C(=O)N(C1CCC(=O)NC1=O)C2=O` (stereo not drawn), the Activity in series [1] came out at 59.2%; in series [4], 1.3%. The same compound displayed a solubility in series [2] of 0.854 µg/mL (≈ 1.22 µM). For the same compound, the half-life in series [3] turned out to be 1.41 min. Also, the CLint in series [5] was 1490 mL/min/g.

With `O=C(/C=C/C(=O)N1CCC(CN2CCN(c3cccc4c3C(=O)N(C3CCC(=O)NC3=O)C4=O)CC2)CC1)Nc1ccc(NC(=O)c2ccc([N+](=O)[O-])o2)cc1` (stereo not drawn), the Activity in series [1] turned out to be 71.1%. This compound also registered a solubility in series [2] of 1.562 µg/mL (≈ 2.04 µM).

Regarding `O=C1CCC(N2C(=O)c3cccc(N4CCC(N5CCN(C(=O)CCCC(=O)Nc6ccc(NC(=O)c7ccc([N+](=O)[O-])o7)cc6)CC5)C4)c3C2=O)C(=O)N1` (stereo not drawn), the Activity in series [1] stood at 40.5%.

`Cc1ncsc1-c1ccc(CNC(=O)[C@@H]2C[C@@H](O)CN2C(=O)[C@@H](NC(=O)CCC(=O)NCCCNC(=O)c2cccc(S(=O)(=O)n3cc(C(=O)NCCCCCC(=O)Oc4ccc(NC(=O)c5ccc(-c6ccccc6)cc5)cc4NS(=O)(=O)c4ccc(F)cc4)ccc3=O)c2)C(C)(C)C)cc1` yielded a DC50 in series [6] of 530 nM.

As to `O=C(/C=C/C(=O)N1CC(CN2CCN(c3cccc4c3C(=O)N(C3CCC(=O)NC3=O)C4=O)CC2)C1)Nc1ccc(NC(=O)c2ccc([N+](=O)[O-])o2)cc1` (stereo not drawn), the Activity in series [1] stood at 43.6%. The same compound came in with a solubility in series [2] of 6.485 µg/mL (≈ 8.78 µM).

Consider `O=C(/C=C/C(=O)N1CCN(CC2CCN(c3ccc4c(c3)C(=O)N(C3CCC(=O)NC3=O)C4=O)C2)CC1)Nc1ccc(NC(=O)c2ccc([N+](=O)[O-])o2)cc1` (stereo not drawn), for which the Activity in series [1] amounted to 73.6%.

Consider `O=C1CCC(N2C(=O)c3cccc(N4CCN(CC5CN(C(=O)COCC(=O)Nc6ccc(NC(=O)c7ccc([N+](=O)[O-])o7)cc6)C5)CC4)c3C2=O)C(=O)N1` (stereo not drawn), for which the result in series [1] was inactive.

Turning to `O=C1CCC(N2C(=O)c3cccc(N4CCN(CC5CCN(C(=O)CCC(=O)Nc6ccc(NC(=O)c7ccc([N+](=O)[O-])o7)cc6)CC5)CC4)c3C2=O)C(=O)N1` (stereo not drawn), the result in series [1] was inactive.

For the compound `O=C1CCC(N2C(=O)c3cccc(N4CCC(N5CCN(C(=O)CCC(=O)Nc6ccc(NC(=O)c7ccc([N+](=O)[O-])o7)cc6)CC5)C4)c3C2=O)C(=O)N1` (stereo not drawn), the result in series [1] was inactive.

On to `O=C1CCC(N2C(=O)c3cccc(N4CCN(CC5CN(C(=O)CCCC(=O)Nc6ccc(NC(=O)c7ccc([N+](=O)[O-])o7)cc6)C5)CC4)c3C2=O)C(=O)N1` (stereo not drawn), for which the outcome in series [1] was inactive.

As to `O=C(/C=C/C(=O)N1CCN(CC2CCN(c3ccc4c(c3)C(=O)N(C3CCC(=O)NC3=O)C4=O)CC2)CC1)Nc1ccc(NC(=O)c2ccc([N+](=O)[O-])o2)cc1` (stereo not drawn), the Activity in series [1] came to 63.6%.

`O=C1CCC(N2C(=O)c3cccc(N4CCC(CN5CCN(C(=O)CCCC(=O)Nc6ccc(NC(=O)c7ccc([N+](=O)[O-])o7)cc6)CC5)C4)c3C2=O)C(=O)N1` (stereo not drawn): the Activity in series [1] worked out at 36.3%.

With `O=C(/C=C/C(=O)N1CCN(C2CCN(c3cccc4c3C(=O)N(C3CCC(=O)NC3=O)C4=O)CC2)CC1)Nc1ccc(NC(=O)c2ccc([N+](=O)[O-])o2)cc1` (stereo not drawn), the Activity in series [1] was 25.3%.

As to `O=C(/C=C/C(=O)N1CCN(CC2CCN(c3cccc4c3C(=O)N(C3CCC(=O)NC3=O)C4=O)CC2)CC1)Nc1ccc(NC(=O)c2ccc([N+](=O)[O-])o2)cc1` (stereo not drawn), the Activity in series [1] came out at 43.6%.

Take `O=C(/C=C/C(=O)N1CCC(CN2CCN(c3ccc4c(c3)C(=O)N(C3CCC(=O)NC3=O)C4=O)CC2)CC1)Nc1ccc(NC(=O)c2ccc([N+](=O)[O-])o2)cc1` (stereo not drawn): the Activity in series [1] turned out to be 52.3%.

Turning to `O=C(/C=C/C(=O)N1CCN(c2cccc3c2C(=O)N(C2CCC(=O)NC2=O)C3=O)CC1)Nc1ccc(NC(=O)c2ccc([N+](=O)[O-])o2)cc1` (stereo not drawn), the Activity in series [1] came out at 20.3%.

`CCn1nc(C)cc1C(=O)Nc1nc2cc(C(=O)NCCCCCCCCC(=O)N[C@@H](C(=O)N3C[C@H](O)C[C@H]3C(=O)NCc3ccc(-c4scnc4C)cc3)C(C)(C)C)cc(OC)c2n1C/C=C/Cn1c(NC(=O)c2cc(C)nn2CC)nc2cc(C(N)=O)cc(OCCCN3CCOCC3)c21` yielded a DC50 in series [6] of 227 nM.

Take `O=C1CCC(N2C(=O)c3cccc(N4CCN(CC5CN(C(=O)CCC(=O)Nc6ccc(NC(=O)c7ccc([N+](=O)[O-])o7)cc6)C5)CC4)c3C2=O)C(=O)N1` (stereo not drawn): the Activity in series [1] came to 40.7%.

On to `O=C(/C=C/C(=O)N1CCN(C2CCN(c3ccc4c(c3)C(=O)N(C3CCC(=O)NC3=O)C4=O)C2)CC1)Nc1ccc(NC(=O)c2ccc([N+](=O)[O-])o2)cc1` (stereo not drawn), for which the outcome in series [1] was inactive.

`O=C1CCC(N2C(=O)c3cccc(N4CCN(CC5CCN(C(=O)CCCC(=O)Nc6ccc(NC(=O)c7ccc([N+](=O)[O-])o7)cc6)CC5)CC4)c3C2=O)C(=O)N1` (stereo not drawn): the outcome in series [1] was inactive.

As for `O=C(/C=C/C(=O)N1CCN(C2CCN(c3cccc4c3C(=O)N(C3CCC(=O)NC3=O)C4=O)C2)CC1)Nc1ccc(NC(=O)c2ccc([N+](=O)[O-])o2)cc1` (stereo not drawn), in series [1], the Activity turned out to be 58%. The solubility in series [2] came out at 6.098 µg/mL (≈ 8.25 µM).

In the case of `O=C1CCC(N2C(=O)c3cccc(N4CCN(CC5CCN(C(=O)COCC(=O)Nc6ccc(NC(=O)c7ccc([N+](=O)[O-])o7)cc6)CC5)CC4)c3C2=O)C(=O)N1` (stereo not drawn), the Activity in series [1] was 32.6%.

Regarding `O=C1CCC(N2C(=O)c3cccc(N4CCC(CN5CCN(C(=O)CCC(=O)Nc6ccc(NC(=O)c7ccc([N+](=O)[O-])o7)cc6)CC5)C4)c3C2=O)C(=O)N1` (stereo not drawn), in series [1], the Activity was 44.7%.

Usually solubility stands for the dissolved amount per volume that the medium holds. Higher therefore signals a readily soluble substance. For orientation: half-life means how long it takes for the measured level to halve.
